Results as given in publication PMC5748833, “Synthesis and Biological Evaluation of Novel Hybrid Molecules Containing Purine, Coumarin and Isoxazoline or Isoxazole Moieties” (The Open Medicinal Chemistry Journal, 2017).

Experiments:
[1] = target: T1, rat monoamine oxidase B (Rattus norvegicus, UniProt P19643); assay: Inhibition of MAO-B (spectrofluorimetric method); format: biochemical; conditions: for MAO-B (%) @ 10μΜ: 10 μM compound
T1 construct: from tissue
T1 sequence (P19643 1-520): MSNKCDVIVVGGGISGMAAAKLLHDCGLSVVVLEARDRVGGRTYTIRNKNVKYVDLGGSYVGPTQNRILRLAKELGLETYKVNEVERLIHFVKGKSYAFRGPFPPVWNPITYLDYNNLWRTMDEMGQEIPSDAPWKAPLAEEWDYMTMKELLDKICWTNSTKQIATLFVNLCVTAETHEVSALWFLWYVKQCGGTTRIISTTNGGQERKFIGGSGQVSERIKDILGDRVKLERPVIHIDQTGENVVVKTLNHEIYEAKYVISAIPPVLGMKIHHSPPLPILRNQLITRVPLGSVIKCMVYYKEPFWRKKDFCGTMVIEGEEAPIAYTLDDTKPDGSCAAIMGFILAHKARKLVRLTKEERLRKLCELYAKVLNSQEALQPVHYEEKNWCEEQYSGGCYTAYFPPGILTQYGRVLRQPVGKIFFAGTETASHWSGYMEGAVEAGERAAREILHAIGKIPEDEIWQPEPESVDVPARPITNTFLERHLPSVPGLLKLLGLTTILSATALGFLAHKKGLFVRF
Description: 2.2.2.6 Inhibition Study on MAOs in vitro
Inhibition of rat monoamine oxidase A and B was studied by means of a spectrofluorimetric method as previously detailed.

[2] = target: T2, soybean lipoxygenase (Glycine max, UniProt P08170); assay: Soybean lipoxygenase inhibition in vitro; format: biochemical; conditions: for IC50: read-out: LOX IC50 μΜ
T2 construct: purchased Sigma Chemical, Co. (St. Louis, MO, USA)
T2 sequence (P08170 1-839): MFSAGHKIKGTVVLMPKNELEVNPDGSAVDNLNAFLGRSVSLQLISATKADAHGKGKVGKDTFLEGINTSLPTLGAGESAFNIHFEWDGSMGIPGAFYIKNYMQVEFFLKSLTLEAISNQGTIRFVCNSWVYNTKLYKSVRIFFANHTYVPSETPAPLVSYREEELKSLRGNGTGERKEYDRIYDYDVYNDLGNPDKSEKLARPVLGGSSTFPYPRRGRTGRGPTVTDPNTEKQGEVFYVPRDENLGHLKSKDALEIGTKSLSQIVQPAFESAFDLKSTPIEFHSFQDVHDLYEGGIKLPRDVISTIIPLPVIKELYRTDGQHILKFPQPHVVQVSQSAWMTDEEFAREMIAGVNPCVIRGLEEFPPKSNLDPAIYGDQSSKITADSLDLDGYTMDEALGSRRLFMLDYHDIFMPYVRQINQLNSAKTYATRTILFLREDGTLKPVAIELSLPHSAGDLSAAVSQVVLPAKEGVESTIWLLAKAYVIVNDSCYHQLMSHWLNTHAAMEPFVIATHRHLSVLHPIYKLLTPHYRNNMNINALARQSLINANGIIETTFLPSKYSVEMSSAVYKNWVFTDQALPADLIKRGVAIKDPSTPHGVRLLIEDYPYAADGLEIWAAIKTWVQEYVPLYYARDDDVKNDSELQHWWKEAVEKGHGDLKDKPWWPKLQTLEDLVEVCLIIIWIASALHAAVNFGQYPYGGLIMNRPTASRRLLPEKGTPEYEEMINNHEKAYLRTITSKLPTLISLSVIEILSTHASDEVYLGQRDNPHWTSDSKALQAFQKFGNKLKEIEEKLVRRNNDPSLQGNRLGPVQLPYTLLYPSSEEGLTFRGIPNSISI

[3] = Competition of the tested compounds with DMSO for hydroxyl radicals; conditions: 100 μM compound, Fe3+/ascorbic acid, 30 min, 37°C; 100 µM
Experimental: 2.2.2.2 Competition of the tested compounds with DMSO for hydroxyl radicals
The hydroxyl radicals generated by the Fe ^3+ /ascorbic acid system, were detected according to Nash, by the determination of formaldehyde produced from the oxidation of DMSO. The reaction mixture contained EDTA (0.1 mM), Fe ^3+ (167 μM), DMSO (33 mM) in phosphate buffer (50 mM, pH 7.4), the tested compounds (concentration 0.1mM) and ascorbic acid (10 mM). After 30 min of incubation (37°C) the reaction was stopped with CCl3COOH (17% w/v) (Table 5). Trolox was used as a standard.
Superoxide (O2^-.) anion and hydroxyl radical (^.OH) are free radical species of potential importance. In the acidic conditions of ischemic brain, O2^-. is probably protonated to give HO2^-. species. Iron released from damaged brain cells is more likely to be readily available to catalyze the generation of OH radicals. Among the ROS, the hydroxyl (^•OH) free radical is possibly the most toxic, as it reacts with a number of biological important molecules. Polyunsaturated fatty acids are found in high concentrations in the CNS, and are particularly vulnerable by free radicals. Thus, we tried to test the ability of our compounds to scavenge hydroxyl radicals. […] All the derivatives of series 13 (except of 13i) present high antioxidant activity (80-100%) which is not able to be correlated with any specific structural characteristic since all contain a coumarin, a purine and an isoxazolyl moiery. […] It seems that the overall molar configuration influences the response. However, antioxidants with hydrophilic or lipophilic character are both needed to act as radical scavengers in the aqueous phase or as chain-breaking antioxidants in biological membranes.

Q: With `O=c1cc(OCC2CC(Cn3cnc4c(N5CCCCC5)ncnc43)=NO2)c2ccccc2o1` (stereo not drawn) [4f] as the compound, how does the “MAO-B (%) @ 10μΜ” value [1] read?
A: no

Q: What about the IC50 [2] of the same compound?
A: 53 µM

Q: What about the “∙ΟΗ % @ 100μΜ (hydroxyl radical scavenging, percent inhibition of formaldehyde production)” value [3] of the same compound?
A: did not present any activity and no

Q: What does the source list for `Cc1cc(=O)oc2ccc(OCC3=NOC(Cn4cnc5c(Cl)ncnc54)C3)cc12` (stereo not drawn) [11b]?
A: IC50 ([1]; read-out: MAO-B IC50 μΜ): 9.5 µM; %LOX @ 100μΜ ([2]; 100 μM compound): no; ∙ΟΗ % @ 100μΜ (hydroxyl radical scavenging, percent inhibition of formaldehyde production) [3]: did not present any activity and no

Q: Which results are given for `O=c1cc(OCc2cc(Cn3cnc4c(N5CCOCC5)ncnc43)no2)c2ccccc2o1` [13i]?
A: MAO-B (%) @ 10μΜ [1]: 9%; IC50 [2]: 76 µM; ∙ΟΗ % @ 100μΜ (hydroxyl radical scavenging, percent inhibition of formaldehyde production) [3]: did not present any activity and no
